The values that follow come from patent US4604237A, “Des-21-threonine-calcitonin” (Armour Pharmaceutical Company, priority 1984, dated 1986).

In test [1] the test system is serum calcium concentration. The experiment in a line: Biological assay of calcitonin analogs in vivo: reduction of serum calcium, 2×2 parallel line assay against synthetic salmon calcitonin standard. Set-up: species or system Rats. The following applies: independently determined content of the standard. The procedure: The biological potency of des-21-threonine-salmon calcitonin was determined by comparing the reduction of serum calcium concentration which followed administration by graded doses of des-Thr^21 -SCT and synthetic salmon calcitonin standard. Rats were divided into four groups of seven animals, and each group was assigned at random to a dose of standard or test solution. Low and high doses were chosen from the linear portion of the dose-response curve. For the salmon calcitonin standard, the values were 0.7 and 2.1 ng. peptide/100 g. body weight (BW). This dose approximates 3 and 9 MU/100 g. BW. Peptides were given by subcutaneous injection (0.2 ml/100 g. BW) and blood was withdrawn 1 hour later for serum calcium determination. Sera are processed and analyzed within two hours of collection. […]. Results were analyzed by a 2×2 parallel line assay [Gaddum, J. H., J. Pharm. Pharmacol., 6, 345 (1953)]. The standard salmon calcitonin used was independently determined to contain greater than 4,000 IU/mg. des-Thr^21 -SCT assayed at 5355 IU/mg.

The conditions of test [2]: literature values; cited from earlier work.

For `CC(C)C[C@H](NC(=O)[C@H](CCCCN)NC(=O)CNC(=O)[C@H](CC(C)C)NC(=O)[C@@H](NC(=O)[C@@H]1CSSC[C@H](N)C(=O)N[C@@H](CO)C(=O)N[C@@H](CC(N)=O)C(=O)N[C@@H](CC(C)C)C(=O)N[C@@H](CO)C(=O)N[C@@H]([C@@H](C)O)C(=O)N1)C(C)C)C(=O)N[C@@H](CO)C(=O)N[C@@H](CCC(N)=O)C(=O)N[C@@H](CCC(=O)O)C(=O)N[C@@H](CC(C)C)C(=O)N[C@@H](Cc1c[nH]cn1)C(=O)N[C@@H](CCCCN)C(=O)N[C@@H](CC(C)C)C(=O)N[C@@H](CCC(N)=O)C(=O)N[C@H](C(=O)N[C@@H](Cc1ccc(O)cc1)C(=O)N1CCC[C@H]1C(=O)N[C@@H](CCCNC(=N)N)C(=O)N[C@H](C(=O)N[C@@H](CC(N)=O)C(=O)N[C@H](C(=O)NCC(=O)N[C@@H](CO)C(=O)NCC(=O)N[C@H](C(=O)N1CCC[C@H]1C(N)=O)[C@@H](C)O)[C@@H](C)O)[C@@H](C)O)[C@@H](C)O` [standard salmon calcitonin, Salmon calcitonin], in test [1], the “potency of the standard salmon calcitonin used” value is reported as “greater than 4,000 IU/mg”.

For “(1,7-α-L-aminosuberic acid)eel calcitonin”, in test [2], the hypocalcemic potency result was “about 3400 IU/mg”.

On to “eel calcitonin [synthetic eel calcitonin]”, for which the hypocalcemic potency result in test [2] is on record as “around 4300 IU/mg”.
